Source: ChEMBL document CHEMBL6134827, “The discovery of novel antimicrobial peptides against drug-resistant bacteria based on fragments fusion strategy” (Eur J Med Chem, 2025)
Starred links: 1 amine or outer side, 2 acyl side, 3 side chain; linkers in the order of their positions; H or OH if unused. Positions of bridges follow the written chain, without caps; N, C: chain ends. Non-standard residues stand in square brackets, D forms with d. Residues, ends and D or L forms follow the SMILES beside them. Groups on a side chain read outwards from the residue. *: point of attachment. εLys = N[C@@H](CCCCN[*:1])C(=O)[*:2]; X1 = CC[C@H](C)CCCCC(=O)*; Dab = NCC[C@H](N)C(=O)O

Experiments:
[1] = test system: Escherichia coli; assay: Antimicrobial activity against Escherichia coli ATCC 25922 assessed as inhibition of visible microbial growth incubated for 18 hrs by broth microdilution method; format: functional
[2] = test system: Staphylococcus aureus; assay: Antimicrobial activity against multidrug resistant Staphylococcus aureus assessed as inhibition of visible microbial growth incubated for 18 hrs by broth microdilution method; format: functional
[3] = test system: Staphylococcus aureus; assay: Antimicrobial activity against Staphylococcus aureus ATCC 29213 assessed as inhibition of visible microbial growth incubated for 18 hrs by broth microdilution method; format: functional
[4] = test system: Acinetobacter baumannii; assay: Antimicrobial activity against multidrug resistant Acinetobacter baumannii assessed as inhibition of visible microbial growth incubated for 18 hrs by broth microdilution method; format: functional
[5] = test system: Escherichia coli; assay: Antimicrobial activity against multidrug resistant Escherichia coli assessed as inhibition of visible microbial growth incubated for 18 hrs by broth microdilution method; format: functional
[6] = test system: Pseudomonas aeruginosa; assay: Antimicrobial activity against multidrug resistant Pseudomonas aeruginosa assessed as inhibition of visible microbial growth incubated for 18 hrs by broth microdilution method; format: functional
[7] = test system: Pseudomonas aeruginosa; assay: Drug resistance, ratio of MIC for multidrug resistant Pseudomonas aeruginosa after 14 passages to MIC for multidrug resistant Pseudomonas aeruginosa after first exposure; format: functional
[8] = Cytotoxicity against human BEAS-2B cells assessed as survival rate at 64 microg/ml measured after 24 hrs by CCK-8 assay relative to control; format: toxicity, cell-based; details: at 64 µg/mL, read-out: Survival
[9] = Hemolytic activity in human red blood cell assessed as hemolysis at 128 microg/ml measured after 1 hrs by microplate reader assay relative to control; format: toxicity, cell-based, Erythrocyte; details: red blood cells, at 128 µg/mL, read-out: Activity
[10] = Cytotoxicity against human LO2 cells assessed as survival rate at 64 microg/ml measured after 24 hrs by CCK-8 assay relative to control; format: toxicity, cell-based, L02; details: at 64 µg/mL, read-out: Survival
[11] = Cytotoxicity against human BEAS-2B cells assessed as inhibition of cell growth measured after 24 hrs by CCK-8 assay; format: toxicity, cell-based
[12] = Cytotoxicity against HEK293T cells assessed as survival rate at 64 microg/ml measured after 24 hrs by CCK-8 assay relative to control; format: toxicity, cell-based, HEK-293T; details: human, at 64 µg/mL, read-out: Survival
[13] = test system: BEAS-2B; assay: Cytotoxicity against human BEAS-2B cells assessed as reduction in cell viability at 2 to 64 microg/mL measured after 24 hrs by CCK-8 assay; format: toxicity, cell-based; details: dose 2-64 µg/ml
[14] = test system: L02; assay: Cytotoxicity against human LO2 cells assessed as reduction in cell viability at 2 to 64 microg/mL measured after 24 hrs by CCK-8 assay; format: toxicity, cell-based; details: l02, 24 h, dose 2-64 µg/ml

| Compound | MIC [1] | MIC [2] | MIC [3] | MIC [4] | MIC [5] | MIC [6] | Ratio [7] | viability at 24 h, 64 µg/mL [8] | hemolysis at 1 h, 128 µg/mL [9] | viability at 24 h, 64 µg/mL [10] | CC50 at 24 h [11] | viability at 24 h, 64 µg/mL [12] | Activity [13] | Activity [14] |
| --- | --- | --- | --- | --- | --- | --- | --- | --- | --- | --- | --- | --- | --- | --- |
| CC(C)C[C@H](NC(=O)CN)C(=O)N[C@@H](CCCNC(=N)N)C(=O)N[C@@H](CCCCN)C(=O)N[C@@H](Cc1c[nH]c2ccccc12)C(=O)N[C@@H](CC(C)C)C(=O)N[C@@H](CCCNC(=N)N)C(=O)NCCCC[C@H](N)C(=O)N[C@@H](Cc1ccccc1)C(=O)N[C@@H](CCCCN)C(=O)N[C@@H](CCCCN)C(=O)N[C@@H](Cc1ccccc1)C(=O)N[C@@H](Cc1c[nH]c2ccccc12)C(=O)O (H-GLRKWLR[εLys]FKKFW-OH) | 17.9 µM | 35.7 µM | 35.7 µM | 35.7 µM | 35.7 µM | 17.9 µM |  |  |  |  |  |  |  |  |
| CC(C)C[C@H](NC(=O)CN)C(=O)N[C@@H](CCCNC(=N)N)C(=O)N[C@@H](CCCCN)C(=O)N[C@@H](Cc1c[nH]c2ccccc12)C(=O)N[C@@H](CC(C)C)C(=O)N[C@@H](CCCNC(=N)N)C(=O)N[C@@H](CCN)C(=O)N[C@@H](Cc1ccccc1)C(=O)N[C@@H](CCN)C(=O)N[C@@H](CCN)C(=O)N[C@@H](Cc1ccccc1)C(=O)N[C@@H](Cc1c[nH]c2ccccc12)C(=O)O (H-GLRKWLR[Dab]F[Dab][Dab]FW-OH) | 9.4 µM | 9.4 µM | 4.7 µM | 4.7 µM | 4.7 µM | 4.7 µM |  |  |  |  |  |  |  |  |
| CC(C)C[C@H](NC(=O)CN)C(=O)N[C@@H](CCCNC(=N)N)C(=O)N[C@@H](CCCCN)C(=O)N[C@@H](Cc1c[nH]c2ccccc12)C(=O)N[C@@H](CC(C)C)C(=O)N[C@@H](CCCNC(=N)N)C(=O)N[C@@H](CCCCN)C(=O)N[C@@H](Cc1ccccc1)C(=O)NCCCC[C@H](N)C(=O)N[C@@H](CCCCN)C(=O)N[C@@H](Cc1ccccc1)C(=O)N[C@@H](Cc1c[nH]c2ccccc12)C(=O)O (H-GLRKWLRKF[εLys]KFW-OH) | 8.9 µM | 17.9 µM | 17.9 µM | 17.9 µM | 35.7 µM | 8.9 µM |  |  |  |  |  |  |  |  |
| CC(C)C[C@H](NC(=O)CN)C(=O)N[C@@H](CCCNC(=N)N)C(=O)N[C@@H](CCCCN)C(=O)N[C@@H](Cc1c[nH]c2ccccc12)C(=O)N[C@@H](CC(C)C)C(=O)N[C@@H](CCCNC(=N)N)C(=O)N[C@@H](CCCCN)C(=O)N[C@@H](Cc1ccccc1)C(=O)N[C@@H](CCCCN)C(=O)NCCCC[C@H](N)C(=O)N[C@@H](Cc1ccccc1)C(=O)N[C@@H](Cc1c[nH]c2ccccc12)C(=O)O (H-GLRKWLRKFK[εLys]FW-OH) | 4.5 µM | 17.9 µM | 17.9 µM | 17.9 µM | 35.7 µM | 8.9 µM |  |  |  |  |  |  |  |  |
| CC(C)C[C@H](NC(=O)CN)C(=O)N[C@@H](CCCNC(=N)N)C(=O)N[C@@H](CCCCN)C(=O)N[C@@H](Cc1c[nH]c2ccccc12)C(=O)N[C@@H](CC(C)C)C(=O)N[C@@H](CCCNC(=N)N)C(=O)N[C@@H](CCCCN)C(=O)N[C@@H](Cc1ccccc1)C(=O)N[C@@H](CCN)C(=O)N[C@@H](CCCCN)C(=O)N[C@@H](Cc1ccccc1)C(=O)N[C@@H](Cc1c[nH]c2ccccc12)C(=O)O (H-GLRKWLRKF[Dab]KFW-OH) | 9.1 µM | 18.1 µM | 18.1 µM | 4.5 µM | 4.5 µM | 4.5 µM |  |  |  |  |  |  |  |  |
| CC(C)CCCCC(=O)N[C@@H](CCN)C(=O)N[C@H](C(=O)N[C@@H](CCN)C(=O)N[C@H]1CCNC(=O)[C@H]([C@@H](C)O)NC(=O)[C@H](CCN)NC(=O)[C@H](CCN)NC(=O)[C@H](CC(C)C)NC(=O)[C@@H](Cc2ccccc2)NC(=O)[C@H](CCN)NC1=O)[C@@H](C)O.CC[C@H](C)CCCCC(=O)N[C@@H](CCN)C(=O)N[C@H](C(=O)N[C@@H](CCN)C(=O)N[C@H]1CCNC(=O)[C@H]([C@@H](C)O)NC(=O)[C@H](CCN)NC(=O)[C@H](CCN)NC(=O)[C@H](CC(C)C)NC(=O)[C@@H](Cc2ccccc2)NC(=O)[C@H](CCN)NC1=O)[C@@H](C)O (X1-[Dab]T[Dab][Dab][Dab][dF]L[Dab][Dab]T; lactam 4-C) | 0.4 µM |  |  | 0.8 µM | 0.8 µM | 2 µg/mL | 4 |  |  |  |  |  |  |  |
| H-GLRKRLRKFKKFGK-OH | 72.7 µM | > 72.7 µM | 72.7 µM | 72.7 µM | 72.7 µM | > 72.7 µM |  |  |  |  |  |  |  |  |
| CC(C)C[C@H](NC(=O)CN)C(=O)N[C@@H](CCN)C(=O)N[C@@H](CCN)C(=O)N[C@@H](Cc1c[nH]c2ccccc12)C(=O)N[C@@H](CC(C)C)C(=O)N[C@@H](CCN)C(=O)N[C@@H](CCN)C(=O)N[C@@H](Cc1ccccc1)C(=O)N[C@@H](CCN)C(=O)N[C@@H](CCN)C(=O)N[C@@H](Cc1ccccc1)C(=O)N[C@@H](Cc1c[nH]c2ccccc12)C(=O)O (H-GL[Dab][Dab]WL[Dab][Dab]F[Dab][Dab]FW-OH) | 5.1 µM | 5.1 µM | 5.1 µM | 5.1 µM | 10.2 µM | 10.2 µM |  | > 80% | < 10% | > 80% | > 64 µg/mL | > 80% |  |  |
| CC(C)C[C@H](NC(=O)CN)C(=O)N[C@@H](CCCNC(=N)N)C(=O)N[C@@H](CCCCN)C(=O)N[C@@H](Cc1c[nH]c2ccccc12)C(=O)N[C@@H](CC(C)C)C(=O)N[C@@H](CCCNC(=N)N)C(=O)N[C@@H](CCCCN)C(=O)N[C@@H](Cc1ccccc1)C(=O)N[C@@H](CCN)C(=O)N[C@@H](CCN)C(=O)N[C@@H](Cc1ccccc1)C(=O)N[C@@H](Cc1c[nH]c2ccccc12)C(=O)O (H-GLRKWLRKF[Dab][Dab]FW-OH) | 9.2 µM | 9.2 µM | 18.4 µM | 4.6 µM | 9.2 µM | 4.6 µM |  |  |  |  |  |  |  |  |
| H-GLRKFLRKFKKFWK-OH | 8.5 µM | 34 µM | 34 µM | 8.5 µM | 17 µM | 17 µM |  |  |  |  |  |  |  |  |
| CC(C)C[C@H](NC(=O)CN)C(=O)N[C@@H](CCCNC(=N)N)C(=O)N[C@@H](CCCCN)C(=O)N[C@@H](Cc1c[nH]c2ccccc12)C(=O)N[C@@H](CC(C)C)C(=O)N[C@@H](CCCNC(=N)N)C(=O)N[C@@H](CCCCN)C(=O)N[C@@H](Cc1ccccc1)C(=O)N[C@@H](CCCCN)C(=O)N[C@@H](CCN)C(=O)N[C@@H](Cc1ccccc1)C(=O)N[C@@H](Cc1c[nH]c2ccccc12)C(=O)O (H-GLRKWLRKFK[Dab]FW-OH) | 9.1 µM | 18.1 µM | 9.1 µM | 4.5 µM | 4.5 µM | 4.5 µM |  |  |  |  |  |  |  |  |
| H-GLRKWLRKFKKFW-OH | 8.9 µM | 17.8 µM | 17.8 µM | 4.5 µM | 4.5 µM | 4.5 µM |  |  | < 10% |  | 38.4 µg/mL |  | Toxic | Toxic |
| CC(C)C[C@H](NC(=O)CN)C(=O)N[C@@H](CCCNC(=N)N)C(=O)N[C@@H](CCN)C(=O)N[C@@H](Cc1c[nH]c2ccccc12)C(=O)N[C@@H](CC(C)C)C(=O)N[C@@H](CCCNC(=N)N)C(=O)N[C@@H](CCCCN)C(=O)N[C@@H](Cc1ccccc1)C(=O)N[C@@H](CCCCN)C(=O)N[C@@H](CCCCN)C(=O)N[C@@H](Cc1ccccc1)C(=O)N[C@@H](Cc1c[nH]c2ccccc12)C(=O)O (H-GLR[Dab]WLRKFKKFW-OH) | 9.1 µM | 18.1 µM | 18.1 µM | 4.5 µM | 9.1 µM | 4.5 µM |  |  |  |  |  |  |  |  |
| CC(C)C[C@H](NC(=O)CN)C(=O)N[C@@H](CCCNC(=N)N)C(=O)N[C@H](CCCCN)C(=O)N[C@@H](Cc1c[nH]c2ccccc12)C(=O)N[C@@H](CC(C)C)C(=O)N[C@@H](CCCNC(=N)N)C(=O)N[C@@H](CCN)C(=O)N[C@@H](Cc1ccccc1)C(=O)N[C@@H](CCCCN)C(=O)N[C@@H](CCCCN)C(=O)N[C@@H](Cc1ccccc1)C(=O)N[C@@H](Cc1c[nH]c2ccccc12)C(=O)O | 18.1 µM | 18.1 µM | 18.1 µM | 4.5 µM | 9.1 µM | 4.5 µM |  |  |  |  |  |  |  |  |
| CC(C)C[C@H](NC(=O)CN)C(=O)N[C@@H](CCCNC(=N)N)C(=O)NCCCC[C@H](N)C(=O)N[C@@H](Cc1c[nH]c2ccccc12)C(=O)N[C@@H](CC(C)C)C(=O)N[C@@H](CCCNC(=N)N)C(=O)N[C@@H](CCCCN)C(=O)N[C@@H](Cc1ccccc1)C(=O)N[C@@H](CCCCN)C(=O)N[C@@H](CCCCN)C(=O)N[C@@H](Cc1ccccc1)C(=O)N[C@@H](Cc1c[nH]c2ccccc12)C(=O)O (H-K([Arg-Leu-Gly])WLRKFKKFW-OH) | 8.9 µM | 35.7 µM | 35.7 µM | 35.7 µM | 35.7 µM | 8.9 µM |  |  |  |  |  |  |  |  |
| H-GLRKFLRKFKKFGK-OH | 18.2 µM | 73 µM | 36.5 µM | 36.5 µM | 36.5 µM | 73 µM |  |  |  |  |  |  |  |  |
| H-GLRKWLRKFKKFWK-OH | 8.3 µM | 16.6 µM | 16.6 µM | 8.3 µM | 8.3 µM | 8.3 µM |  |  |  |  |  |  |  |  |
